From patent US20230066286A1, “DEUTERATED TRYPTAMINE DERIVATIVES AND METHODS OF USE” (priority 2020, published 2023)

Assays:
rat liver microsomes = experiment: Metabolic stability in rat liver microsomes (RLM); settings: for RLM (metabolized or not): last time point 120 min; for RLM, % (half-life as % vs. the related nondeuterated compound): values in square brackets are within 10% difference (assay's accuracy), no deuteration effect
hrMAO-A = biological target: T1, hrMAO-A (Homo sapiens, UniProt P21397); experiment: Metabolic stability in the presence of hrMAO-A; assay type: in vitro ADME; settings: for MAO, % (half-life as % vs. the related nondeuterated compound) / MAO (metabolized or not): MAO-A assay; for MAO, % (half-life as % vs. the related nondeuterated compound): values in square brackets are within 10% difference (assay's accuracy), no deuteration effect; for MAO (metabolized or not): last time point 120 min
T1 construct: purchased XenoTech Lot# 8213001
T1 sequence (P21397 1-527): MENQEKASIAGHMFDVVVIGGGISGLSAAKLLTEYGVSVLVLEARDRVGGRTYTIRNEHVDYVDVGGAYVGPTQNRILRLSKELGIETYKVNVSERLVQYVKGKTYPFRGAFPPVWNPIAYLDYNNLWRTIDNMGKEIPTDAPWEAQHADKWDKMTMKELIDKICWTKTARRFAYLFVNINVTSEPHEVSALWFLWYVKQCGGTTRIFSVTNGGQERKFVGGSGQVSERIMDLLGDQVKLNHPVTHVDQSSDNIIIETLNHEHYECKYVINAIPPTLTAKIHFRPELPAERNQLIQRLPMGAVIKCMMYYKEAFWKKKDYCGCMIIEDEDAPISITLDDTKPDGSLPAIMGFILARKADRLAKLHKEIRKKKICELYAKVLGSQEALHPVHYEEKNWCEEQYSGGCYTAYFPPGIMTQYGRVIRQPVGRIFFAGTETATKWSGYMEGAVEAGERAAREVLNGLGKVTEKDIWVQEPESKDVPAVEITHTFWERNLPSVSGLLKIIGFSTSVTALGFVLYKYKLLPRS
Experimental: The reaction mixture was prepared as described below. The co-dosed TAs were added into the reaction mixture at a final concentration of 1 microM each. The positive control, kynuramine (25 microM), was run simultaneously with the TAs in a separate reaction. The reaction mixture (without TAs or kynuramine) was equilibrated in a shaking water bath at 37° C. for 5 minutes. The reaction was initiated by the addition of the TAs or kynuramine, and the mixture was incubated in a shaking water bath at 37° C. Aliquots (100 microL) of the TA reaction mixture were withdrawn at 0, 5, 10, 20, 30, 60, and 120 minutes. Aliquots (100 microL) of the positive control reaction mixture were withdrawn at 0 and 30 minutes. TA and kynuramine samples were immediately combined with 100 microL of ice-cold 100% MeCN containing 0.1% formic acid and IS to terminate the reaction. The samples were then mixed and centrifuged to precipitate proteins. All TA samples were assayed by LC-HRAMS. The PARR (analyte to IS) at each time point was compared to the PARR at time 0 to determine the percent remaining at each time point. Reaction composition: hrMAO 0.02 mg/mL; Potassium Phosphate, pH 7.4 100 mM; Magnesium Chloride 5 mM; Test Articles (each) 1 microM.

[1] = oral; cited from earlier work
[2] = Blood-to-plasma ratio (BPR), parent drug in brain and plasma of rats; assay type: in vivo, rat; settings: % change vs. non-deuterated material
Experimental: (§1) The key PK parameters (presented as a % change vs. non-deuterated materials) are presented in Table 3 to include half-life (T½), area under the curve (AUC), bioavailability (F) and blood-to-plasma ration (BPR). Pharmacokinetics of the deuterated tryptamines was studied in rats. In a typical experiment, run as a cassette dosing, two groups of 5 Wistar female rats (200-250 g) with surgically inserted jugular vein catheter (Charles River, Andover, MA) were fasted for 12 h and then administered 5 mg/kg of the deuterated and 5 mg/kg of the related non-deuterated analog, by oral gavage or via a catheter for each group. At time points 0, 15, 30, 60 min, and 2, 4, 8, and 24 h, the resulting plasma was analyzed for the parent molecule using LC/MS spectroscopy. Two separate groups of 5 animals were used for determining blood-to-plasma ratio (BPR). Each group was sacrificed at time points 15 and 30 min, respectively, and the concentration of the parent drug was determined in the […] and plasma by LC/MS spectroscopy.

[3] = PK study in rats, cassette dosing; assay type: in vivo, rat; settings: % change vs. non-deuterated material, 5 mg/kg, oral gavage or via catheter
Experimental: as §1

Structure (SMILES): C=CCN(CC=C)CCc1c[nH]c2ccccc12
- RLM (metabolized or not) (rat liver microsomes; RLM assay): R

Structure (SMILES): C=CCNCCc1c[nH]c2ccccc12
- RLM (metabolized or not) (rat liver microsomes; RLM assay): R

Structure (SMILES): [2H]C([2H])(Cc1c[nH]c2ccccc12)NC([2H])([2H])C([2H])([2H])[2H]
- MAO, % (half-life as % vs. the related nondeuterated compound) (hrMAO-A): 170%

Structure (SMILES): [2H]C([2H])([2H])C([2H])([2H])NC([2H])([2H])C([2H])([2H])c1c[nH]c2cccc(O)c12
- RLM, % (half-life as % vs. the related nondeuterated compound) (rat liver microsomes; RLM assay): [93] %

Structure (SMILES): CCN(CC)CCc1c[nH]c2ccccc12
- RLM (metabolized or not) (rat liver microsomes; RLM assay): R

Structure (SMILES): [2H]C([2H])(c1c[nH]c2ccc(OC)cc12)C([2H])([2H])N(CC)CC
- RLM, % (half-life as % vs. the related nondeuterated compound) (rat liver microsomes; RLM assay): [95] %

Structure (SMILES): CCN(CC)CCc1c[nH]c2ccc(OC)cc12
- RLM (metabolized or not) (rat liver microsomes; RLM assay): R

Structure (SMILES): CCN(CC)CCc1c[nH]c2ccc(O)cc12
- RLM (metabolized or not) (rat liver microsomes; RLM assay): R

Structure (SMILES): CCN(CC)CCc1c[nH]c2cccc(OC)c12
- RLM (metabolized or not) (rat liver microsomes; RLM assay): R

Structure (SMILES): [2H]c1ccc2[nH]c([2H])c(CCN([2H])CC)c2c1O
- RLM (metabolized or not) (rat liver microsomes; RLM assay): R

Structure (SMILES): [2H]C([2H])(NCC)C([2H])([2H])c1c[nH]c2ccccc12
- MAO, % (half-life as % vs. the related nondeuterated compound) (hrMAO-A): 140%

Structure (SMILES): CCNCCc1c[nH]c2ccccc12
- MAO (metabolized or not) (hrMAO-A): R
- RLM (metabolized or not) (rat liver microsomes; RLM assay): R

Structure (SMILES): [2H]C([2H])(NCC)C([2H])([2H])c1c[nH]c2cccc(O)c12
- RLM, % (half-life as % vs. the related nondeuterated compound) (rat liver microsomes; RLM assay): [94] %

Structure (SMILES): CCNCCc1c[nH]c2cccc(O)c12
- RLM (metabolized or not) (rat liver microsomes; RLM assay): R

Structure (SMILES): CCN(C)CCc1c[nH]c2ccccc12
- MAO (metabolized or not) (hrMAO-A): R
- RLM (metabolized or not) (rat liver microsomes; RLM assay): R

Structure (SMILES): CCN(C)CCc1c[nH]c2ccc(OC)cc12
- MAO (metabolized or not) (hrMAO-A): R
- RLM (metabolized or not) (rat liver microsomes; RLM assay): R

Structure (SMILES): CCN(C)CCc1c[nH]c2ccc(O)cc12
- MAO (metabolized or not) (hrMAO-A): R
- RLM (metabolized or not) (rat liver microsomes; RLM assay): R

Structure (SMILES): CCN(C)CCc1c[nH]c2cccc(OC)c12
- MAO (metabolized or not) (hrMAO-A): R
- RLM (metabolized or not) (rat liver microsomes; RLM assay): R

Structure (SMILES): COc1ccc2[nH]cc(CCN(C)C)c2c1
- MAO (metabolized or not) (hrMAO-A): R
- RLM (metabolized or not) (rat liver microsomes; RLM assay): R

Structure (SMILES): CN(C)CCc1c[nH]c2ccc(O)cc12
- MAO (metabolized or not) (hrMAO-A): R
- RLM (metabolized or not) (rat liver microsomes; RLM assay): R

Structure (SMILES): [2H]C([2H])(c1c[nH]c2cccc(OC)c12)C([2H])([2H])N(C)C
- RLM, % (half-life as % vs. the related nondeuterated compound) (rat liver microsomes; RLM assay): 190%

Structure (SMILES): COc1cccc2[nH]cc(CCN(C)C)c12
- MAO (metabolized or not) (hrMAO-A): R
- RLM (metabolized or not) (rat liver microsomes; RLM assay): R

Structure (SMILES): CNCCc1c[nH]c2ccccc12
- MAO (metabolized or not) (hrMAO-A): R
- RLM (metabolized or not) (rat liver microsomes; RLM assay): R

Structure (SMILES): [2H]C([2H])(NC)C([2H])([2H])c1c[nH]c2cccc(O)c12
- RLM, % (half-life as % vs. the related nondeuterated compound) (rat liver microsomes; RLM assay): 160%

Structure (SMILES): CNCCc1c[nH]c2cccc(O)c12
- MAO (metabolized or not) (hrMAO-A): R
- RLM (metabolized or not) (rat liver microsomes; RLM assay): R

Structure (SMILES): CC(C)NCCc1c[nH]c2ccccc12
- RLM (metabolized or not) (rat liver microsomes; RLM assay): R

Structure (SMILES): CC(C)NCCc1c[nH]c2cccc(O)c12
- RLM (metabolized or not) (rat liver microsomes; RLM assay): R

Structure (SMILES): [2H]C([2H])(c1c[nH]c2cccc(O)c12)C([2H])([2H])N(C(C)C)C(C)C
- RLM, % (half-life as % vs. the related nondeuterated compound) (rat liver microsomes; RLM assay): [97] %

Structure (SMILES): CC(C)N(CCc1c[nH]c2cccc(O)c12)C(C)C
- RLM (metabolized or not) (rat liver microsomes; RLM assay): R

Structure (SMILES): COc1cc(CCNCc2ccccc2OC)c(OC)cc1Cl [2C-C-NBOMe, 2-(4-Chloro-2,5-dimethoxyphenyl)-N-[(2-methoxyphenyl)methyl]ethan-l-amine]
- orally active dose, as low as [1]: 25 µg
- very strong psychedelic doses [1]: 500 to 700 µg

Structure (SMILES): [2H]C([2H])(Cc1c[nH]c2ccc(OC)cc12)N(C)C [5-MeO-DMT-α,α-d2]
- BPR, 15 min, deuterium kinetic isotope effect (% change) ([2]; rats sacrificed at 15 min): 120%
- BPR, 30 min, deuterium kinetic isotope effect (% change) ([2]; rats sacrificed at 30 min): 180%
- AUC, deuterium kinetic isotope effect (% change) [3]: 60%
- T½, deuterium kinetic isotope effect (% change) [3]: 30%

Structure (SMILES): [2H]C([2H])(Cc1c[nH]c2ccccc12)N(C)C [DMT-d2]
- CLint (hrMAO-A; hrMAO-A, four test articles): 0.126 mL/min/ mg protein
- % Remaining of Initial 0 min (hrMAO-A; hrMAO-A, four test articles): 100%
- % Remaining of Initial 60 min (hrMAO-A; hrMAO-A, four test articles, 60 min): 76.0%
- % Remaining of Initial 0 min (rat liver microsomes; RLM, four test articles): 100%
- % Remaining of Initial 60 min (rat liver microsomes; RLM, four test articles, 60 min): 32.0%

Structure (SMILES): [2H]C([2H])(c1c[nH]c2ccccc12)C([2H])([2H])N(C)C [DMT-d4]
- CLint (hrMAO-A; hrMAO-A, four test articles): 0.119 mL/min/ mg protein
- % Remaining of Initial 0 min (hrMAO-A; hrMAO-A, four test articles): 100%
- % Remaining of Initial 0 min (rat liver microsomes; RLM, four test articles): 100%

Structure (SMILES): [2H]C([2H])([2H])N(C([2H])([2H])[2H])C([2H])([2H])C([2H])([2H])c1c[nH]c2ccccc12 [DMT-d10]
- stability in the MAO-A enzymatic assay vs. less deuterated DMT analogs (hrMAO-A; MAO-A enzymatic assay): superiority
- % Remaining of Initial 0 min (hrMAO-A; hrMAO-A, d8 and d10 analogs of DMT): 100.0%
- % Remaining of Initial 5 min (hrMAO-A; hrMAO-A, d8 and d10 analogs of DMT, 5 min): 99.0%
- % Remaining of Initial 0 min (hrMAO-A; hrMAO-A, four test articles): 100%
- % Remaining of Initial 0 min (rat liver microsomes; RLM, d8 and d10 analogs of DMT): 100%
- % Remaining of Initial 10 min (rat liver microsomes; RLM, d8 and d10 analogs of DMT, 10 min): 56.0%
- % Remaining of Initial 0 min (rat liver microsomes; RLM, four test articles): 100%
- metabolic stability vs. less deuterated DMT analogs (rat liver microsomes; rat liver microsomes): Further enhancement of metabolic stability

Structure (SMILES): [2H]c1[nH]c2c([2H])c([2H])c([2H])c([2H])c2c1C([2H])([2H])C([2H])([2H])N(C([2H])([2H])[2H])C([2H])([2H])[2H] [DMT-dis]
- half-life compared to DMT-d10 (rat liver microsomes; RLM assay, additional deuteration in the phenyl ring): no improvement in half-life

Structure (SMILES): CN(C)CCc1c[nH]c2ccccc12 [DMT]
- CLint (hrMAO-A; hrMAO-A, four test articles): 0.638 mL/min/ mg protein
- % Remaining of Initial 0 min (hrMAO-A; hrMAO-A, four test articles): 100%
- % Remaining of Initial 0 min (rat liver microsomes; RLM, four test articles): 100%
- % Remaining of Initial 20 min (rat liver microsomes; RLM, four test articles, 20 min): 41.0%
